This is an account of results in ChEMBL document CHEMBL4613308, “Screen of Unfocused Libraries Identified Compounds with Direct or Synergistic Antibacterial Activity” (ACS Med Chem Lett, 2020).

Structures are written as SMILES. Values after ≈ are worked out from the molar mass of the structure shown. A value given as a limit tells only on which side of the number the result lay.

The MIC is the lowest concentration found to suppress growth. The IC50 is the concentration needed to halve the response being measured.

One test concerns Streptococcus pyogenes. Put plainly: Antibacterial activity against Streptococcus pyogenes ATCC 12344 assessed as bacterial growth inhibition by agar diffusion assay. Format: functional. (In general: Agar diffusion results depend on both activity and mobility in agar.)
For `CCOC(=O)c1cn(CC)c2cc(N)c(F)cc2c1=O`, the MIC came out at 64 µg/mL (≈ 230 µM).
Same read-out and setting: for `COc1ccc(CNC(=O)c2c(O)c3cc(-c4cccnc4)ccc3n(CCCCO)c2=O)cc1` the value was 8 µg/mL (≈ 16.9 µM).

The next test relates to Enterobacter cloacae. In words: Antibacterial activity against multidrug-resistant Enterobacter cloacae VA 417/02 clinical isolate assessed as bacterial growth inhibition by agar diffusion assay. In kind it is functional.
With `CCOC(=O)c1cn(CC)c2cc(N)c(F)cc2c1=O`, the MIC was > 256 µg/mL.
Regarding `COc1ccc(CNC(=O)c2c(O)c3cc(-c4cccnc4)ccc3n(CCCCO)c2=O)cc1`, the MIC amounted to 64 µg/mL (≈ 135 µM).

For another test, the system named is Enterococcus faecalis. Put plainly: Antibacterial activity against Enterococcus faecalis ATCC 29212 assessed as bacterial growth inhibition by agar diffusion assay. Format: functional.
As to `CCOC(=O)c1cn(CC)c2cc(N)c(F)cc2c1=O`, the MIC is 256 µg/mL (≈ 920 µM).
Consider `COc1ccc(CNC(=O)c2c(O)c3cc(-c4cccnc4)ccc3n(CCCCO)c2=O)cc1`, for which the minimal inhibitory concentration (MIC) came to 16 µg/mL (≈ 33.8 µM).

In a further test the test system is Acinetobacter baumannii. Put plainly: Potentiation of colistin-induced antibacterial activity against Acinetobacter baumannii ATCC 17978 assessed as fold reduction in colistin MIC by microdilution broth method relative to colistin MIC. In kind it is functional. In general terms: Broth dilution looks for growth in wells or tubes with falling amounts of substance.
Turning to `CCCCCc1cc(O)cc(OCCCCCCCCCCC(=O)NCCO)c1`, the log2FC is recorded as 8.
On to `COc1ccc(CNC(=O)c2c(O)c3cc(-c4cccnc4)ccc3n(CCCCO)c2=O)cc1`, for which the log2FC was 5.

For a further test, the system named is Klebsiella pneumoniae. In words: Antibacterial activity against Klebsiella pneumoniae ATCC 13833 assessed as bacterial growth inhibition by agar diffusion assay. Format: functional.
Consider `CCCCCc1cc(O)cc(OCCCCCCCCCCC(=O)NCCO)c1`, for which the MIC was > 512 µg/mL.
For `CCOC(=O)c1cn(CC)c2cc(N)c(F)cc2c1=O`, the MIC turned out to be 128 µg/mL (≈ 460 µM).
In the case of `COc1ccc(CNC(=O)c2c(O)c3cc(-c4cccnc4)ccc3n(CCCCO)c2=O)cc1`, the MIC is 32 µg/mL (≈ 67.6 µM).

A further test concerns Pseudomonas aeruginosa. In words: Antibacterial activity against Pseudomonas aeruginosa ATCC 27853 assessed as bacterial growth inhibition by agar diffusion assay. Format: functional.
Turning to `CCCCCc1cc(O)cc(OCCCCCCCCCCC(=O)NCCO)c1`, the MIC was > 512 µg/mL.
Turning to `CCOC(=O)c1cn(CC)c2cc(N)c(F)cc2c1=O`, the MIC was > 256 µg/mL.
With `COc1ccc(CNC(=O)c2c(O)c3cc(-c4cccnc4)ccc3n(CCCCO)c2=O)cc1`, the MIC is 256 µg/mL (≈ 541 µM).

The next test relates to HeLa. Put plainly: Cytotoxicity against human HeLa cells assessed as reduction in cell viability assay by CellTox-Green assay. In kind it is cell-based.
In the case of `CCCCCc1cc(O)cc(OCCCCCCCCCCC(=O)NCCO)c1`, the IC50 stood at 25 µg/mL (≈ 61.3 µM).

In another test the test system is Acinetobacter baumannii. Put plainly: Synergistic antibacterial activity against Acinetobacter baumannii ATCC 17978 assessed as fractional inhibitory concentration index in presence of colistin by Checkerboard assay. In kind it is functional.
As to `CCCCCc1cc(O)cc(OCCCCCCCCCCC(=O)NCCO)c1`, the “fractional inhibitory concentration index (FICI)” value turned out to be 0.29.

A further test relates to Escherichia coli. Put plainly: Antibacterial activity against multidrug-resistant Escherichia coli Z25 clinical isolate assessed as bacterial growth inhibition by agar diffusion assay. In kind it is functional.
For `CCOC(=O)c1cn(CC)c2cc(N)c(F)cc2c1=O`, the MIC was > 256 µg/mL.
`COc1ccc(CNC(=O)c2c(O)c3cc(-c4cccnc4)ccc3n(CCCCO)c2=O)cc1`: the MIC was > 256 µg/mL.

Another test deals with Escherichia coli. In words: Synergistic antibacterial activity against Escherichia coli CCUG in presence of 0.5 times MIC of colistin by microdilution broth method. In kind it is functional.
Turning to `CCCCCc1cc(O)cc(OCCCCCCCCCCC(=O)NCCO)c1`, the MIC was found to be 8 µg/mL.
As for `COc1ccc(CNC(=O)c2c(O)c3cc(-c4cccnc4)ccc3n(CCCCO)c2=O)cc1`, the MIC was 32 µg/mL.

The next test deals with Klebsiella pneumoniae. In words: Synergistic antibacterial activity against colistin-resistant Klebsiella pneumoniae SI-004Bo clinical isolate in presence of 2 ug/ml colistin by microdilution broth method (reference value: 64 ug/ml). Format: functional.
In the case of `CCCCCc1cc(O)cc(OCCCCCCCCCCC(=O)NCCO)c1`, the MIC was > 64 µg/mL.

In another test the test system is Enterobacter cloacae. Put plainly: Antibacterial activity against multidrug-resistant Enterobacter cloacae Z19 clinical isolate assessed as bacterial growth inhibition by agar diffusion assay. In kind it is functional.
On to `CCOC(=O)c1cn(CC)c2cc(N)c(F)cc2c1=O`, for which the MIC was > 256 µg/mL.
Regarding `COc1ccc(CNC(=O)c2c(O)c3cc(-c4cccnc4)ccc3n(CCCCO)c2=O)cc1`, the minimal inhibitory concentration (MIC) was > 256 µg/mL.

The subject of another test is Acinetobacter baumannii. In words: Antibacterial activity against Acinetobacter baumannii AC-54/97 clinical isolate assessed as bacterial growth inhibition by agar diffusion assay. Format: functional.
For the compound `CCOC(=O)c1cn(CC)c2cc(N)c(F)cc2c1=O`, the MIC is > 256 µg/mL.
Turning to `COc1ccc(CNC(=O)c2c(O)c3cc(-c4cccnc4)ccc3n(CCCCO)c2=O)cc1`, the MIC is > 256 µg/mL.

Another test relates to Pseudomonas aeruginosa. In words: Potentiation of colistin-induced antibacterial activity against Pseudomonas aeruginosa ATCC 27853 assessed as fold reduction in colistin MIC by microdilution broth method relative to colistin MIC. In kind it is functional.
As to `CCCCCc1cc(O)cc(OCCCCCCCCCCC(=O)NCCO)c1`, the log2FC is 8.

The next test has as its system Klebsiella pneumoniae. Put plainly: Synergistic antibacterial activity against colistin-resistant Klebsiella pneumoniae SI-081R clinical isolate in presence of 2 ug/ml colistin by microdilution broth method (reference value: 256 ug/ml). Format: functional.
For the compound `CCCCCc1cc(O)cc(OCCCCCCCCCCC(=O)NCCO)c1`, the MIC is > 64 µg/mL.

The test system of a further test is Acinetobacter baumannii. Put plainly: Synergistic antibacterial activity against multidrug-resistant Acinetobacter baumannii N50 in presence of 2 ug/ml colistin by microdilution broth method. In kind it is functional.
Turning to `CCCCCc1cc(O)cc(OCCCCCCCCCCC(=O)NCCO)c1`, the MIC was 2 µg/mL.

Another test deals with Acinetobacter baumannii. In words: Antibacterial activity against Acinetobacter baumannii ATCC 17978 assessed as bacterial growth inhibition by agar diffusion assay. Format: functional.
On to `CCCCCc1cc(O)cc(OCCCCCCCCCCC(=O)NCCO)c1`, for which the MIC is > 512 µg/mL.
Same read-out and setting: for `CCOC(=O)c1cn(CC)c2cc(N)c(F)cc2c1=O` the value was 256 µg/mL (≈ 920 µM); for `COc1ccc(CNC(=O)c2c(O)c3cc(-c4cccnc4)ccc3n(CCCCO)c2=O)cc1`, 16 µg/mL (≈ 33.8 µM).

In the next test the test system is Pseudomonas aeruginosa. In words: Synergistic antibacterial activity against Pseudomonas aeruginosa ATCC 27853 in presence of 0.5 times MIC of colistin by microdilution broth method. In kind it is functional.
With `CCCCCc1cc(O)cc(OCCCCCCCCCCC(=O)NCCO)c1`, the MIC was 2 µg/mL.

The test system of the next test is Staphylococcus aureus. In words: Antibacterial activity against Staphylococcus aureus ATCC 25923 assessed as bacterial growth inhibition by agar diffusion assay. In kind it is functional.
Consider `CCOC(=O)c1cn(CC)c2cc(N)c(F)cc2c1=O`, for which the MIC turned out to be 256 µg/mL (≈ 920 µM).
With `COc1ccc(CNC(=O)c2c(O)c3cc(-c4cccnc4)ccc3n(CCCCO)c2=O)cc1`, the MIC amounted to 4 µg/mL (≈ 8.45 µM).

The next test has as its system Acinetobacter baumannii. Put plainly: Synergistic antibacterial activity against multidrug-resistant Acinetobacter baumannii N50 assessed as fractional inhibitory concentration index in presence of colistin by checkerboard assay. In kind it is functional.
Take `CCCCCc1cc(O)cc(OCCCCCCCCCCC(=O)NCCO)c1`: the “fractional inhibitory concentration index (FICI)” value amounted to 0.062.

The next test has as its system Pseudomonas aeruginosa. In words: Antibacterial activity against multidrug-resistant Pseudomonas aeruginosa VR-143/97 clinical isolate assessed as bacterial growth inhibition by agar diffusion assay. Format: functional.
For `CCOC(=O)c1cn(CC)c2cc(N)c(F)cc2c1=O`, the minimum inhibitory concentration (MIC) is > 256 µg/mL.
Still for that read-out and setting: for `COc1ccc(CNC(=O)c2c(O)c3cc(-c4cccnc4)ccc3n(CCCCO)c2=O)cc1` the value was > 256 µg/mL.

A further test relates to Acinetobacter baumannii. In words: Synergistic antibacterial activity against Acinetobacter baumannii ATCC 17978 in presence of 0.5 times MIC of colistin by microdilution broth method. In kind it is functional.
As for `CCCCCc1cc(O)cc(OCCCCCCCCCCC(=O)NCCO)c1`, the MIC came to 2 µg/mL.
Turning to `COc1ccc(CNC(=O)c2c(O)c3cc(-c4cccnc4)ccc3n(CCCCO)c2=O)cc1`, the MIC amounted to 16 µg/mL.

In the next test the test system is Klebsiella pneumoniae. In words: Synergistic antibacterial activity against Klebsiella pneumoniae ATCC 13833 in presence of 0.5 times MIC of colistin by microdilution broth method. In kind it is functional.
Regarding `CCCCCc1cc(O)cc(OCCCCCCCCCCC(=O)NCCO)c1`, the minimal inhibitory concentration (MIC) was determined as 4 µg/mL.
For `COc1ccc(CNC(=O)c2c(O)c3cc(-c4cccnc4)ccc3n(CCCCO)c2=O)cc1`, the MIC was 64 µg/mL.

A further test has as its system Klebsiella pneumoniae. In words: Potentiation of colistin-induced antibacterial activity against Klebsiella pneumoniae ATCC 13833 assessed as fold reduction in colistin MIC by microdilution broth method relative to colistin MIC. Format: functional.
Turning to `CCCCCc1cc(O)cc(OCCCCCCCCCCC(=O)NCCO)c1`, the log2FC stood at 7.
In the case of `COc1ccc(CNC(=O)c2c(O)c3cc(-c4cccnc4)ccc3n(CCCCO)c2=O)cc1`, the log2FC turned out to be 3.

The subject of another test is Escherichia coli. Put plainly: Antibacterial activity against Escherichia coli CCUG assessed as bacterial growth inhibition by agar diffusion assay. Format: functional.
As to `CCCCCc1cc(O)cc(OCCCCCCCCCCC(=O)NCCO)c1`, the MIC is > 512 µg/mL.
As for `CCOC(=O)c1cn(CC)c2cc(N)c(F)cc2c1=O`, the MIC came to 32 µg/mL (≈ 115 µM).
As for `COc1ccc(CNC(=O)c2c(O)c3cc(-c4cccnc4)ccc3n(CCCCO)c2=O)cc1`, the MIC was 64 µg/mL (≈ 135 µM).

In a further test the test system is Escherichia coli. Put plainly: Synergistic antibacterial activity against Escherichia coli CCUG assessed as fractional inhibitory concentration index in presence of colistin by Checkerboard assay. Format: functional.
`COc1ccc(CNC(=O)c2c(O)c3cc(-c4cccnc4)ccc3n(CCCCO)c2=O)cc1`: the “fractional inhibitory concentration index (FICI)” value stood at 0.56.

Another test has as its system Bacillus spizizenii. Put plainly: Antibacterial activity against Bacillus subtilis ATCC 6633 assessed as bacterial growth inhibition by agar diffusion assay. Format: functional.
For `CCOC(=O)c1cn(CC)c2cc(N)c(F)cc2c1=O`, the MIC amounted to 32 µg/mL (≈ 115 µM).
Take `COc1ccc(CNC(=O)c2c(O)c3cc(-c4cccnc4)ccc3n(CCCCO)c2=O)cc1`: the MIC came to 0.12 µg/mL (≈ 0.253 µM).

The next test concerns Pseudomonas aeruginosa. Put plainly: Synergistic antibacterial activity against Pseudomonas aeruginosa ATCC 27853 assessed as fractional inhibitory concentration index in presence of colistin by Checkerboard assay. Format: functional.
Regarding `CCCCCc1cc(O)cc(OCCCCCCCCCCC(=O)NCCO)c1`, the “fractional inhibitory concentration index (FICI)” value is 0.41.

The next test has as its system Escherichia coli. Put plainly: Potentiation of colistin-induced antibacterial activity against Escherichia coli CCUG assessed as fold reduction in colistin MIC in by microdilution broth method relative to colistin MIC. In kind it is functional.
As to `CCCCCc1cc(O)cc(OCCCCCCCCCCC(=O)NCCO)c1`, the log2FC came out at 6.
In the case of `COc1ccc(CNC(=O)c2c(O)c3cc(-c4cccnc4)ccc3n(CCCCO)c2=O)cc1`, the log2FC came to 4.
